Measurements: patent US11718616B2, “JAK kinase inhibitor compounds for treatment of respiratory disease” (THERAVANCE BIOPHARMA R&D IP, LLC, priority 2015, dated 2023)

Assays:
[1] = test system: IL-13 induced pSTAT6 induction in lung tissue; experiment: Murine model of IL-13 induced pSTAT6 induction in lung tissue; type: in vivo, mouse; conditions: for pSTAT6 inhibition in the pharmacodynamic assay: mouse lung, Assay 5 conditions; for lung concentration smaller than that of the corresponding compound of the invention by a factor of: mouse lung in pharmacodynamic assay, C-1 vs Example 1, C-2 vs 7, C-3 vs 13, C-4 vs 6
Procedure: Il-13 is an important cytokine underlying the pathophysiology of asthma (Kudlacz et al. Eur. J Pharmacol, 2008, 582, 154-161). IL-13 binds to cell surface receptors activating members of the Janus family of kinases (JAK) which then phosphorylate STAT6 and subsequently activates further transcription pathways. In the described model, a dose of IL-13 was delivered locally into the lungs of mice to induce the phosphorylation of STAT6 (pSTAT6) which is then measured as the endpoint.
Adult balb/c mice from Harlan were used in the assay. On the day of study, animals were lightly anesthetized with isoflurane and administered either vehicle or test compound (0.5 mg/mL, 50 μL total volume over several breaths) via oral aspiration. Animals were placed in lateral recumbency post dose and monitored for full recovery from anesthesia before being returned to their home cage. Four hours later, animals were once again briefly anesthetized and challenged with either vehicle or IL-13 (0.03 μg total dose delivered, 50 μL total volume) via oral aspiration before being monitored for recovery from anesthesia and returned to their home cage. One hour after vehicle or IL-13 administration, lungs were collected for both pSTAT6 detection using an anti-pSTAT6 ELISA (rabbit mAb capture/coating antibody; mouse mAb detection/report antibody: anti-pSTAT6-pY641; secondary antibody: anti-mouse IgG-HRP) and analyzed for total drug concentration as described above in Assay 4.
Selected compounds of the invention were tested in the assay. Activity in the model is evidenced by a decrease in the level of pSTAT6 present in the lungs of treated animals at 5 hours compared to the vehicle treated, IL-13 challenged control animals. The difference between the control animals which were vehicle-treated, IL-13 challenged and the control animals which were vehicle-treated, vehicle challenged dictated the 0% and 100% inhibitory effect, respectively, in any given experiment.

JAK1 = JAK1 (Homo sapiens (Human), UniProt P23458); experiment: LanthaScreen JAK biochemical assay, JAK1; conditions: C-1 vs Example 1, C-2 vs 7, C-3 vs 13, C-4 vs 6
[2] = Dynamic moisture sorption assessment; type: physicochemical; conditions: humidity range of 5% to 90% relative humidity, about 25° C.
Procedure: Dynamic moisture sorption (DMS) measurement was performed using a VTI atmospheric microbalance, SGA-100 system (VTI Corp., Hialeah, Fla. 33016). A weighed sample was used and the humidity was lowest possible value (close to 0% RH) at the start of the analysis. The DMS analysis consisted of an initial drying step (˜0% RH) for 120 minutes, followed by two cycles of sorption and desorption with a scan rate of 5% RH/step over the humidity range of 5% RH to 90% RH. The DMS run was performed isothermally at 25° C.

JAK1, sequence (P23458 whole entry): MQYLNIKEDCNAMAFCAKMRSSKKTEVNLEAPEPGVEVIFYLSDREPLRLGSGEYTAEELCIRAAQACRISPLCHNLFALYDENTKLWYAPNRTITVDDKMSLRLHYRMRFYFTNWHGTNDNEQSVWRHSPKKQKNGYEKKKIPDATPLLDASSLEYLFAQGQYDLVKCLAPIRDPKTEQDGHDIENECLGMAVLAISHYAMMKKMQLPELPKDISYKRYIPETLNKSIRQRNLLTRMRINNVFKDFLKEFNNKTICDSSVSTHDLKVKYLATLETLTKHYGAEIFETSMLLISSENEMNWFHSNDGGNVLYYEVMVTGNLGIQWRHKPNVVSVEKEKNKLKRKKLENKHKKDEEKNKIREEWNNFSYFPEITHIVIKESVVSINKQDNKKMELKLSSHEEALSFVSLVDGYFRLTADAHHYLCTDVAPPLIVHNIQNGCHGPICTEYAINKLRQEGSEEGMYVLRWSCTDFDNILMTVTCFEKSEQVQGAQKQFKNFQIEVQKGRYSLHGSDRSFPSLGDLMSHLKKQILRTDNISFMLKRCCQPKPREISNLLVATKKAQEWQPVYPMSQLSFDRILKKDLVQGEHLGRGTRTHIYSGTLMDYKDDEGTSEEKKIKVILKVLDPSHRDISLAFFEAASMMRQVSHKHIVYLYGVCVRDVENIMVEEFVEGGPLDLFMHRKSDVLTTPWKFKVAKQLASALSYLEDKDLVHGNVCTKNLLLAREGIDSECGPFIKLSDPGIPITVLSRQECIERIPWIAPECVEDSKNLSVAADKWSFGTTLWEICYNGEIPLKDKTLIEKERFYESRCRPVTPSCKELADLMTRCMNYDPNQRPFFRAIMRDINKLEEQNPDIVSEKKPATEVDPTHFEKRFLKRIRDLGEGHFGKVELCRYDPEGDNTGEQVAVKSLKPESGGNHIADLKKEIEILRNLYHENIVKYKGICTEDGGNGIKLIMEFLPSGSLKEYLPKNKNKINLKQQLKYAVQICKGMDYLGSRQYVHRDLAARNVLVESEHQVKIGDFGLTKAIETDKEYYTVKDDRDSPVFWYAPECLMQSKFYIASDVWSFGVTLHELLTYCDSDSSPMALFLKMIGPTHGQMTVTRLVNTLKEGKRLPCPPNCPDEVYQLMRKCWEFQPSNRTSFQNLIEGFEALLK

| SMILES | pSTAT6 inhibition in the pharmacodynamic assay [1] | lung concentration smaller than that of the corresponding compound of the invention by a factor of [1] | fold less potent than the corresponding compound of the invention in the enzyme assay (JAK1) | weight gain (weight change) on moisture sorption [2] |
| --- | --- | --- | --- | --- |
| CCc1cc(O)c(F)cc1-c1ccc2c(-c3nc4c([nH]3)CCN(C3CN(C5CCS(=O)(=O)C5)C3)C4)n[nH]c2c1 (centres unmarked) [Example 1-15] | exceptions |  |  |  |
| CCc1cc(O)c(F)cc1-c1ccc2c(-c3nc4c([nH]3)CCN(C3CCC(C)CC3)C4)n[nH]c2c1 (centres unmarked) [Example C-4] |  | 23 | 2.5 fold |  |
| CCc1cc(O)c(F)cc1-c1ccc2c(-c3nc4c([nH]3)CCN(CC3CCCOC3)C4)n[nH]c2c1 (centres unmarked) [Example C-3] |  | 13 | 6 fold |  |
| CCc1cc(O)c(F)cc1-c1ccc2c(-c3nc4c([nH]3)CCN(CCC(C)C)C4)n[nH]c2c1 [Example C-2] |  | 52 | 3 fold |  |
| CCc1cc(O)c(F)cc1-c1ccc2c(-c3nc4c([nH]3)CCN(CCNC3(C#N)CC3)C4)n[nH]c2c1 [Example 3-1] | exceptions |  |  |  |
| CCc1cc(O)c(F)cc1-c1ccc2c(-c3nc4c([nH]3)CCN(C3CCN(C)CC3)C4)n[nH]c2c1 [crystalline hydrate, 5-ethyl-2-fluoro-4-(3-(5-(1-methylpiperidin-4-yl)-4,5,6,7-tetrahydro-1H-imidazo[4,5-c]pyridin-2-yl)-1H-indazol-6-yl)phenol] |  |  |  | less than 0.12% |
| CCc1cc(O)c(F)cc1-c1ccc2c(-c3nc4c([nH]3)CCN(C3CC(C)C3)C4)n[nH]c2c1 (centres unmarked) [Example C-1, 5-Ethyl-2-fluoro-4-(3-(5-(3-methylcyclobutyl)-4,5,6,7-tetrahydro-1H-imidazo[4,5-c]pyridin-2-yl)-1H-indazol-6-yl)phenol] |  | 36 | 2 fold |  |
